How the values were obtained:
[1] = DPPH assay (ability to scavenge nitrogen radicals); parameters: DPPH assay % inhibition: concentration or dose not given beside the values; conditions: relative to vitamin C (Equation 1)
Description: The samples were mixed with DPPH (23.6 μg/ml, in ethanol), and incubated in dark at 37° C. for 30 minutes. The DPPH absorbance reduced by each sample was measured at 517 nm. Vitamin C (Sigma-Aldrich, St. Louis, Mo.) was used as a control, and the DPPH inhibition value (%) was calculated using the following equation: Scavenging activity (%)=[Absmax(Vit.C)−Abssample]/[Absmax(Vit.C)−Absmin(Vit.C)]×100. Equation 1
(§1) The antioxidant activities of the verbenone derivatives of the present invention were measured by the following two different chemical reactions: (1) a single electron transfer-based assay that is a […] [DPPH] assay that measures a decrease in DPPH acting as a free radical generator and a termination probe; and (2) a hydrogen atom transfer assay that is an oxygen radical absorbance capacity [[…]] assay that measures the competitive reaction kinetics of a peroxyl radical generator (AAPH; 2,2′-azobis-(2-methylpropionamide)-dihydrochloride) and each sample acting as an antioxidant for oxidizable fluorescent probe (fluorescein).

cortical neurons [2] = assay: Oxygen-glucose deprivation (OGD)/reoxygenation neuronal injury, LDH release; format: cell-based; conditions: rat cortical neurons, FIG. 1
Description: (§2) Cortical neurons (5×10^5 cells/ml) were isolated from fetal SD rats (16-17 days). Specifically, brain cortex was cut, and cells were isolated from the tissue by repeated trituration using a Pasteur pipette in buffer (Hanks' Balanced Salt Solution, HBSS). The cell suspension (1.8×10^3 cells/mm^2) was dispensed on a plate pretreated with poly-D-lysine ([…])/laminin ([…]). The cells were placed in 10% FBS-containing NBM medium, and incubated in a […]/5% CO2 atmosphere at 37° C. After 15-16 days of the incubation, the experiment was performed.
In order to induce hypoxic-ischemic symptoms in vitro, the incubated cells were placed in an anoxic chamber (partial oxygen pressure <2 mmHg). The cells were incubated glucose-free DMEM while being bubbled with an anaerobic gas mixture (95% N2 and 5% CO2) for 30 minutes to remove residual oxygen, and were incubated at 37° C. for 90 minutes for oxygen deprivation. After 90 minutes, the exposed solution was replaced with 25 mmol/L glucose-containing DMEM medium to stop the OGD reaction, and the cells were restored to normal oxygen conditions. Control cells not exposed to OGD were incubated in glucose (25 mmol/L)-containing DMEM medium provided with an aerobic gas mixture (95% air and 5% CO2). The cells were treated with each sample 30 minutes before, and during the entire period of OGD/re-oxygenation.
(§3) In order to measure cell injury or cell death, the amount of LDH released into the medium was measured using a cell viability measurement kit (Sigma-Aldrich, St. Louis, Mo.). Cell viability was expressed as the percentage of LDH relative to the total cellular LDH level measured in sister cultures lysed by freezing-thawing after the experiment.

cortical neurons [3] = assay: NMDA-induced excitotoxicity, LDH release; format: cell-based, SD rats; parameters: dose or concentration left out as unconfirmed; conditions: cultured cortical neuronal cells; sample 30 min before NMDA; lower than MK-801; FIG. 2
Description: as §2
After incubation on the plate for 15-18 days, the cortical neurons were exposed to NMDA ([…]) in a solution (Mg^2+-free Earle's balanced salt solution (EBSS); containing 1.8 mM CaCl2 and 10 mM glycine) for 10 minutes. After exposure, the cells were washed with MgSO4-containing EBSS solution, and incubated in 25 mmol/L glucose-containing DMEM medium in a 5% CO2 incubator at 37° C. 30 Minutes before treatment with NMDA, the cells were treated with each sample […].
as §3

[4] = Oxygen radical absorbance capacity (ORAC) assay; parameters: ORAC assay TE25 (trolox equivalents): dose or concentration left out as unconfirmed; conditions: for ORAC assay TE25 (trolox equivalents): net AUC sample / net AUC trolox
Description: An ORAC assay was performed as disclosed in the literature (Huang, D. et al., J. Agric. Food Chem., 53, 1841-56, 2005).
AAPH (60 mM) and fluorescein (50 nM) were prepared in buffer (75 mM phosphate buffer, pH7.4) without a sample or a sample or a standard (Trolox). Each of the samples and the standard was suspended in a solution of 7% RMCD (randomly methylated beta-cyclodextrin) in 50% acetone. RMCD was used to increase the solubility of oil-soluble samples. Each sample was sufficiently mixed with fluorescein solution (66 nM, 190 μl) by shaking for 5 seconds. After incubation at 37° C. for 10 minutes, AAPH (500 mM, 30 μl) was quickly added to each sample, and a decrease in the fluorescence was measured using a fluorescence microplate reader (Ex=485 nm, Em=530 nm; SpectraMax GeminiEM, Molecular Devices, Sunnyvale, Calif.) at 37° C. at 5-min intervals for 9 hours. To quantify the activity of scavenging peroxyl radicals, AUC (area-under-the-curve) was calculated according to the following equation 2, and net AUC was calculated according to the following equation 3, and the TE (trolox equivalents) of each sample was calculated according to the following equation 4 based on a standard curve of net AUC plotted according to an increase in trolox concentration. AUC=(0.5+f1/f0+f2/f0+f3/f0+ . . . +fn−2/f0+fn−1/f0+fn/f0)×5, Equation 2
wherein f0 is the first fluorescence at 0 min and time I. Net AUC=AUCsample−AUCblank. Equation 3 TE(trolox equivalents) of each sample=[netAUCsample […]]/[net AUCtrolox […]]. Equation 4
as §1

**Q.** For `CC1(C)[C@@H]2C[C@H]1C(C=Cc1ccc(O)cc1)=CC2=O` [Compound 3a, (1S,5R)-4-(4-hydroxystyryl)-6,6-dimethylbicyclo[3.1.1]hept-3-en-2-one], which “DPPH assay % inhibition” value [1] is on record?
**A.** The value was 19.11 ± 0.67%.

**Q.** And the “neuronal injury induced by OGD (LDH release)” value (cortical neurons [2]; OGD/reoxygenation, comparable to MK801)?
**A.** The value was “significantly reduced neuronal injury”.

**Q.** And the cytotoxicity (cortical neurons [2])?
**A.** The cytotoxicity was “showed no cytotoxicity”.

**Q.** And the NMDA-induced neuronal injury (cortical neurons [3])?
**A.** Its NMDA-induced neuronal injury is “significantly reduced NMDA-induced neuronal injury”.

**Q.** What about the “ORAC assay Net AUC” value [4] of the same molecule?
**A.** Its value is 153.98 ± 1.68.

**Q.** And the “ORAC assay TE25 (trolox equivalents)” value [4]?
**A.** The value was 3.43 ± 0.04.

**Q.** Which “DPPH assay % inhibition” value [1] does the source give for `COc1cc(O)ccc1C=CC1=CC(=O)[C@H]2C[C@@H]1C2(C)C` [Compound 3b, (1S,5R)-4-(4-hydroxy-2-methoxystyryl)-6,6-dimethylbicyclo[3.1.1]hept-3-en-2-one] here?
**A.** Its value is 38.13 ± 5.62%.

**Q.** And the “ORAC assay Net AUC” value [4]?
**A.** The value was 106.48 ± 1.89.

**Q.** And the “ORAC assay TE25 (trolox equivalents)” value [4]?
**A.** The value was 2.37 ± 0.04.

**Q.** For `CC1(C)[C@@H]2C[C@H]1C(C=Cc1ccc(O)c(Br)c1)=CC2=O` [Compound 3d, (1S,5R)-4-(3-bromo-4-hydroxystyryl)-6,6-dimethylbicyclo[3.1.1]hept-3-en-2-one], which “DPPH assay % inhibition” value [1] is on record?
**A.** Its value is 29.45 ± 2.41%.

**Q.** What about the “ORAC assay Net AUC” value [4] of the same molecule?
**A.** Its value is 168.12 ± 5.24.

**Q.** What about the “ORAC assay TE25 (trolox equivalents)” value [4] of the same molecule?
**A.** Its value is 3.74 ± 0.12.

**Q.** With `COc1cc(O)cc(OC)c1C=CC1=CC(=O)[C@H]2C[C@@H]1C2(C)C` [Compound 3e, (1S,5R)-4-(4-hydroxy-2,6-dimethoxystyryl)-6,6-dimethylbicyclo[3.1.1]hept-3-en-2-one] as the molecule, how does the “DPPH assay % inhibition” value [1] read?
**A.** The value was 55.80 ± 7.52%.

**Q.** What about the “ORAC assay Net AUC” value [4] of the same molecule?
**A.** Its value is 166.26 ± 6.05.

**Q.** And the “ORAC assay TE25 (trolox equivalents)” value [4]?
**A.** Its value is 3.70 ± 0.13.

**Q.** What does the source list for `CC1(C)[C@@H]2C[C@H]1C(C=Cc1cccc(O)c1)=CC2=O` [Compound 3g, (1S,5R)-4-(3-hydroxystyryl)-6,6-dimethylbicyclo[3.1.1]hept-3-en-2-one]?
**A.** ORAC assay Net AUC [4]: 73.74 ± 3.86; ORAC assay TE25 (trolox equivalents) [4]: 1.64 ± 0.09

**Q.** Which “DPPH assay % inhibition” value [1] does the source give for `CC1(C)[C@@H]2C[C@H]1C(C=Cc1ccccc1O)=CC2=O` [Compound 3h, (1S,5R)-4-(2-hydroxystyryl)-6,6-dimethylbicyclo[3.1.1]hept-3-en-2-one] here?
**A.** The value was 4.64 ± 0.60%.

**Q.** What about the “ORAC assay Net AUC” value [4] of the same molecule?
**A.** The value was 98.77 ± 2.53.

**Q.** What about the “ORAC assay TE25 (trolox equivalents)” value [4] of the same molecule?
**A.** The value was 2.20 ± 0.06.

**Q.** Which results are given for `COc1ccc(C=CC2=CC(=O)[C@H]3C[C@@H]2C3(C)C)c(O)c1` [Compound 3i, (1S,5R)-4-(2-hydroxy-4-methoxystyryl)-6,6-dimethylbicyclo[3.1.1]hept-3-en-2-one]?
**A.** DPPH assay % inhibition [1]: 51.21 ± 3.83%; NMDA-induced neuronal injury (cortical neurons [3]): significantly reduced NMDA-induced neuronal injury; ORAC assay Net AUC [4]: 136.87 ± 3.24; ORAC assay TE25 (trolox equivalents) [4]: 3.05 ± 0.07

**Q.** What does the source list for `CC1(C)[C@@H]2C[C@H]1C(C=Cc1ccccc1)=CC2=O` [Compound 4a, (1S,5R)-6,6-dimethyl-4-styrylbicyclo[3.1.1]hept-3-en-2-one]?
**A.** ORAC assay Net AUC [4]: 27.73 ± 0.74; ORAC assay TE25 (trolox equivalents) [4]: 0.61 ± 0.01

**Q.** With `CC1(C)[C@@H]2C[C@H]1C(C=Cc1ccc(F)cc1)=CC2=O` [Compound 4b, (1S,5R)-4-(4-fluorostyryl)-6,6-dimethylbicyclo[3.1.1]hept-3-en-2-one] as the molecule, how does the “ORAC assay Net AUC” value [4] read?
**A.** Its value is 26.15 ± 1.26.

**Q.** And the “ORAC assay TE25 (trolox equivalents)” value [4]?
**A.** The value was 0.62 ± 0.02.

**Q.** For `COc1ccc(C=CC2=CC(=O)[C@H]3C[C@@H]2C3(C)C)cc1` [Compound 4c, (1S,5R)-4-(4-methoxystyryl)-6,6-dimethylbicyclo[3.1.1]hept-3-en-2-one], which “ORAC assay Net AUC” value [4] is on record?
**A.** Its value is 38.06 ± 2.00.

**Q.** What about the “ORAC assay TE25 (trolox equivalents)” value [4] of the same molecule?
**A.** Its value is 0.79 ± 0.01.

**Q.** Which “ORAC assay Net AUC” value [4] does the source give for `CC1(C)[C@@H]2C[C@H]1C(C=Cc1ccc(-c3ccccc3)cc1)=CC2=O` [Compound 4d, (1S,5R)-4-(2-(biphenyl-4-yl)vinyl)-6,6-dimethylbicyclo[3.1.1]hept-3-en-2-one] here?
**A.** The value was 26.75 ± 1.27.

**Q.** What about the “ORAC assay TE25 (trolox equivalents)” value [4] of the same molecule?
**A.** The value was 0.56 ± 0.01.

**Q.** Which results are given for `COc1ccc(C=CC2=CC(=O)[C@H]3C[C@@H]2C3(C)C)cc1OC` [Compound 4f, (1S,5R)-4-(3,4-dimethoxystyryl)-6,6-dimethylbicyclo[3.1.1]hept-3-en-2-one]?
**A.** ORAC assay Net AUC [4]: 39.35 ± 1.67; ORAC assay TE25 (trolox equivalents) [4]: 0.88 ± 0.04

**Q.** Which “ORAC assay Net AUC” value [4] does the source give for `COc1cc(C=CC2=CC(=O)[C@H]3C[C@@H]2C3(C)C)cc(OC)c1` [Compound 4g, (1S,5R)-4-(3,5-dimethoxystyryl)-6,6-dimethylbicyclo[3.1.1]hept-3-en-2-one] here?
**A.** The value was 45.28 ± 0.62.

**Q.** What about the “ORAC assay TE25 (trolox equivalents)” value [4] of the same molecule?
**A.** The value was 1.01 ± 0.01.

**Q.** Which results are given for `COc1ccc(OC)c(C=CC2=CC(=O)[C@H]3C[C@@H]2C3(C)C)c1` [Compound 4h, (1S,5R)-4-(2,5-dimethoxystyryl)-6,6-dimethylbicyclo[3.1.1]hept-3-en-2-one]?
**A.** ORAC assay Net AUC [4]: 32.44 ± 1.54; ORAC assay TE25 (trolox equivalents) [4]: 0.72 ± 0.03

**Q.** For `COc1ccc(Br)cc1C=CC1=CC(=O)[C@H]2C[C@@H]1C2(C)C` [Compound 4i, (1S,5R)-4-(5-bromo-2-methoxystyryl)-6,6-dimethylbicyclo[3.1.1]hept-3-en-2-one], which “ORAC assay Net AUC” value [4] is on record?
**A.** The value was 32.96 ± 1.03.

**Q.** What about the “ORAC assay TE25 (trolox equivalents)” value [4] of the same molecule?
**A.** The value was 0.73 ± 0.02.

**Q.** Which results are given for `CC1(C)[C@@H]2C[C@H]1C(/C=C/c1ccccn1)=CC2=O` [Compound 5a, (1S,5R)-6,6-dimethyl-4-((E)-2-(pyridin-2-yl)vinyl)bicyclo[3.1.1]hept-3-en-2-one]?
**A.** NMDA-induced neuronal injury (cortical neurons [3]): significantly reduced NMDA-induced neuronal injury; ORAC assay Net AUC [4]: 23.51 ± 0.79; ORAC assay TE25 (trolox equivalents) [4]: 0.52 ± 0.02

**Q.** Which results are given for `CC1(C)[C@@H]2C[C@H]1C(/C=C/c1cccnc1)=CC2=O` [Compound 5b, (1S,5R)-6,6-dimethyl-4-((E)-2-(pyridin-3-yl)vinyl)bicyclo[3.1.1]hept-3-en-2-one]?
**A.** ORAC assay Net AUC [4]: 22.93 ± 0.61; ORAC assay TE25 (trolox equivalents) [4]: 0.51 ± 0.01

**Q.** With `CC1(C)[C@@H]2C[C@H]1C(/C=C/c1ccncc1)=CC2=O` [Compound 5c] as the molecule, how does the “ORAC assay Net AUC” value [4] read?
**A.** The value was 22.51 ± 0.34.

**Q.** What about the “ORAC assay TE25 (trolox equivalents)” value [4] of the same molecule?
**A.** Its value is 0.50 ± 0.01.

From US10710951B2, “Pharmaceutical composition containing verbenone derivative for treating or preventing neurodegenerative disease” (KOREA UNIVERSITY RESEARCH AND BUSINESS FOUNDATION, priority 2012, dated 2020)
